The values below are quoted from earlier work in US20030195171A1 (priority 2002, published 2003).

Data set [1] concerns the target T1, vitamin D receptor (Homo sapiens, UniProt P11473).
T1 sequence (P11473 1-427): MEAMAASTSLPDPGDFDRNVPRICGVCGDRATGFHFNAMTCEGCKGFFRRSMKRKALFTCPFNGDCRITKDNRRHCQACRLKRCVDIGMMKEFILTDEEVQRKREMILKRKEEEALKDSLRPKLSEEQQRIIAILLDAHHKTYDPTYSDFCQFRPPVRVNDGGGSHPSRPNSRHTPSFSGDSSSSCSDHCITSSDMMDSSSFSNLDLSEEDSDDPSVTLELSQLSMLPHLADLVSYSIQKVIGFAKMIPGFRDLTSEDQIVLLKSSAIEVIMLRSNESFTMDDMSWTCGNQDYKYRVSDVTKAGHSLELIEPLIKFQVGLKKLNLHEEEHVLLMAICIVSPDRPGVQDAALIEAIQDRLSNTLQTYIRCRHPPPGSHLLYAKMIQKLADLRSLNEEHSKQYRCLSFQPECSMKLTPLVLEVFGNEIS
The settings on record: relative to 1α,25-dihydroxy-cholecalciferol.

For data set [2] the following is noted: compared to placebo.

With `C=C1CC[C@H](O)C/C1=C/C=C1\CCC[C@]2(C)[C@@H]([C@H](C)CCCC(C)(C)O)CC[C@@H]12` [25-hydroxy-cholecalciferol], the “Intrinsic activity, fold lower than that of 1α,25-dihydroxy-cholecalciferol” value in data set [1] is “about 100 fold”.
For `NCCCC(O)(P(=O)(O)O)P(=O)(O)O` [alendronate, 4-Amino-1-hydroxybutylidene-1,1-bisphosphonic acid monosodium trihydrate], the “Decrease in the risk of vertebral fractures” value in data set [2] (administered over a substantial period of time) is given as “at least 40%”. In addition, in data set [2] (total number of vertebral fractures), the “Reduction in vertebral fracture rate per 100 patients” value is “at least 50%”.
